Reference: patent US20070275961A1, “Triazolo ' 1, 5-A ! Pyrimidines and Their Use in Medicine” (VERNALIS (CAMBRIDGE) LIMITED., priority 2003, published 2007)
Read-outs that look alike come from different tables or passages of the source.

Tests used:
Format in all cases: biochemical
Chk1 = target: T1, Chk1 (Homo sapiens, UniProt O14757); assay: Chk1 kinase assay, phosphorylation of Chktide (33P-ATP filtration); conditions: 0.01 mM ATP, read-out: Chk1 IC50
T1 sequence (O14757 1-476): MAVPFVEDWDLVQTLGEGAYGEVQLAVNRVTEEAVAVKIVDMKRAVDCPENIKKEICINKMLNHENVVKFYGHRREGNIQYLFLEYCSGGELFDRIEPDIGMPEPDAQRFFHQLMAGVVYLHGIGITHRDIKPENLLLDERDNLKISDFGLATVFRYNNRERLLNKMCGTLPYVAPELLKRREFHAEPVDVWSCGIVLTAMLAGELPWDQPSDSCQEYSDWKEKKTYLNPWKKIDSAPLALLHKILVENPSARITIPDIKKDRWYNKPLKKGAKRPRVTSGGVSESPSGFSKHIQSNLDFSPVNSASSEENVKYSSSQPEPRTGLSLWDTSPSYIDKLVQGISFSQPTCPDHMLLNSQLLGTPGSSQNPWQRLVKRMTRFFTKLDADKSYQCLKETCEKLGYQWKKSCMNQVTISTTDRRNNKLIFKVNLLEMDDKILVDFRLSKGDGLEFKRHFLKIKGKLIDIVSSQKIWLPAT
Protocol: Assays for the Chk1 kinase activity were carried out by monitoring the phosphorylation of a synthetic peptide Chktide with the amino acid sequence, […]. The assay mixture containing the inhibitor and Chk1 enzyme was mixed together in a microtiter plate in a final volume of 50 μl and incubated for 40 minutes at 30° C.
The assay mixture contained 0.01 mM unlabeled ATP, 0.5 μCi ^33P-γ-ATP, 30 μM Chktide, 0.1 mg/ml BSA, 50 mM Hepes-NaOH pH 7.5 and 11 nM GST-Chk1 enzyme. The reaction was stopped by adding 50 μl of 50 mM phosphoric acid. 90 μl of the mixture was transferred to a pre-wetted 96-well Multiscreen MAPHNOB filtration plate (Millipore) and filtered on a vacuum manifold. The filter plate was washed with three successive additions of 200 μl 50 mM phosphoric acid and then with 100 μl methanol. The filtration plate was dried for 10 min at 65° C., scintillant added and phosphorylated peptide quantified in a scintillation counter (Trilux, PerkinElmer).

PDK1 enzyme = target: T2, PDK1 enzyme (Homo sapiens, UniProt O15530); assay: PDK1 3'-phosphoinositide-dependent kinase assay, phosphorylation of synthetic peptide (33P-ATP filtration); conditions: 0.01 mM ATP, read-out: PDK1 IC50
T2 sequence (O15530 1-556): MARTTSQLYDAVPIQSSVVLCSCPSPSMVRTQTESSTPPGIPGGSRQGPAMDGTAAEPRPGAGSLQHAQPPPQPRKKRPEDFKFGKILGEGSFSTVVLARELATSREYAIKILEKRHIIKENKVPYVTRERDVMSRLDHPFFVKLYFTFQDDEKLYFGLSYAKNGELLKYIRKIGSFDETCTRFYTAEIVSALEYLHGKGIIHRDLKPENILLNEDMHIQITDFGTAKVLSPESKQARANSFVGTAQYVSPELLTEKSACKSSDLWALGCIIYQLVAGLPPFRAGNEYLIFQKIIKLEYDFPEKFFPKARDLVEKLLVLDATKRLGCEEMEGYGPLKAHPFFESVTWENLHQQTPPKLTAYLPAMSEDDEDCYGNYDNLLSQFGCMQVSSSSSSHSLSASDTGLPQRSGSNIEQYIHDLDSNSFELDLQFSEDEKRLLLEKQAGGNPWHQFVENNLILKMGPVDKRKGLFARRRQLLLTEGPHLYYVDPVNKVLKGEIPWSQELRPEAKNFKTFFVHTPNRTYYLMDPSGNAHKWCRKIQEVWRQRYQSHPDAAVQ
Protocol: (§1) The assay mixture containing the inhibitor and PDK1 enzyme was mixed together in a microtiter plate in a final volume of 50 μl and incubated for 60 min at 30° C. The assay mixture contained 0.01 mM unlabeled ATP, 0.01 μCi/μl ^33P-γ-ATP, 0.075 mM peptide, 0.1 mg/ml BSA, 7.5 mM magnesium acetate, 0.05 M Tris.HCl, pH 7.5, 0.5% 2-mercaptoethanol. The reaction was stopped by adding 50 μl of 50 mM phosphoric acid. 90 μl of the mixture were transferred to a pre-wetted 96-well Multiscreen MAPHNOB filtration plate (Millipore) and filtered on a vacuum manifold. The filter plate was washed with three successive additions of 200 μl 50 mM phosphoric acid and then with 100 μl methanol. The filtration plate was dried for 10 min at 65° C., scintillant added and phosphorylated peptide quantified in a scintillation counter (Trilux, PerkinElmer).

[1] = target: CDK2 enzyme, complexed with cyclin A (Homo sapiens, UniProt P24941); assay: CDK2 cyclin dependent kinase assay, phosphorylation of synthetic peptide […] (33P-ATP filtration); conditions: 0.1 mM ATP
Protocol: as §1, with “and CDK2 enzyme, complexed with cyclin A (0.4 U/ml)” for “and PDK1 enzyme”, “for 40” for “for 60”, “contained 0.1” for “contained 0.01”, “^33P-γ-ATP, 0.03” for “^33P-γ-ATP, 0.075”, “acetate, 50 mM HEPES-NaOH,” for “acetate, 0.05 M Tris.HCl,”, “pH 7.5.” for “pH 7.5, 0.5% 2-mercaptoethanol.”
HEPES is N-[2-hydroxyethyl]piperazine-N′-[2-ethanesulfonic acid]. BSA is bovine serum albumin.

Structure (SMILES) | IC50 (Chk1; Table 1) | IC50 (PDK1 enzyme; Table 1) | IC50 ([1]; Table 1) | IC50 (Chk1; Table 2) | IC50 (PDK1 enzyme; Table 2) | IC50 ([1]; Table 2)
CS(=O)(=O)c1ccc(Nc2cc(Cl)nc3ncnn23)cc1 [Example 18] | > 200 µM | > 200 µM | 0.82 µM |  |  | 
NS(=O)(=O)c1ccc(Nc2cc(N3CCC(O)CC3)nc3ncnn23)cc1 [Example 19] | > 200 µM | > 200 µM | 0.99 µM |  |  | 
NS(=O)(=O)c1ccc(Nc2cc(N3CCCC3)nc3ncnn23)cc1 [Example 20] | > 200 µM | > 200 µM | 3.33 µM |  |  | 
CN(C)c1ccc(Nc2cc(Cl)nc3ncnn23)cc1 [Example 21] | > 200 µM | > 200 µM | 59 µM |  |  | 
NC(=O)c1cccc(Nc2cc(Cl)nc3ncnn23)c1 [Example 22] | > 200 µM | > 200 µM | 36.7 µM |  |  | 
NS(=O)(=O)c1ccc(Nc2cc(N3CCCC(CO)C3)nc3ncnn23)cc1 (stereo not drawn) [Example 23] | > 200 µM | > 200 µM | 0.33 µM |  |  | 
NS(=O)(=O)c1ccc(Nc2cc(N3CCOCC3)nc3ncnn23)cc1 [Example 24] | > 200 µM | > 200 µM | 15.7 µM |  |  | 
O=C(O)c1ccc(Nc2cc(Cl)nc3ncnn23)cc1 [Example 25] | > 200 µM | > 200 µM | 93.2 µM |  |  | 
CN(C)Cc1ccccc1-c1cc(Nc2cc(Cl)ccc2O)n2ncnc2n1 [Example 26] | 105 µM | > 200 µM | > 200 µM |  |  | 
NS(=O)(=O)c1ccc(Nc2cc(-c3cccc(C(=O)O)c3)nc3ncnn23)cc1 [Example 27] | > 200 µM | > 200 µM | 14.3 µM |  |  | 
CCN(CC)CCNC(=O)c1ccc(Nc2cc(-c3cccc(C#N)c3)nc3ncnn23)cc1 [Example 28] | > 200 µM | > 200 µM | 18.6 µM |  |  | 
Cc1cccc(-c2cc(Nc3ccc(C#N)cc3)n3ncnc3n2)c1 [Example 29] | > 200 µM | > 200 µM | 57.5 µM |  |  | 
NS(=O)(=O)c1ccc(Nc2ccnc3ncnn23)cc1 [Example 30] | 72 µM | > 200 µM | 33 µM |  |  | 
CC(C)C(CO)Nc1cc(Nc2ccc(S(N)(=O)=O)cc2)n2ncnc2n1 (stereo not drawn) [Example 31] | > 200 µM | > 200 µM | 4.91 µM |  |  | 
Oc1ccc(Cl)cc1Nc1cc(Cl)nc2ncnn12 [Example 32] | > 200 µM | > 200 µM | 31.6 µM |  |  | 
Clc1cccc(-c2cc(Nc3ccc4c(c3)OCO4)n3ncnc3n2)c1 [Example 33] | 23.9 µM | > 200 µM | 29 µM |  |  | 
NS(=O)(=O)c1ccc(Nc2cc(N3CCCCC3)nc3ncnn23)cc1 [Example 34] | > 200 µM | > 200 µM | 0.62 µM |  |  | 
NS(=O)(=O)c1ccc(Nc2cc(Nc3cccc(Cl)c3)nc3ncnn23)cc1 [Example 35] | 40.5 µM | 48 µM | 1.72 µM |  |  | 
NS(=O)(=O)c1ccc(CNc2cc(Cl)nc3ncnn23)cc1 [Example 38] | > 200 µM | > 200 µM | 15 µM |  |  | 

Other lines, results leading:

IC50 (Chk1; Table 1) | IC50 (PDK1 enzyme; Table 1) | IC50 ([1]; Table 1) | IC50 (Chk1; Table 2) | IC50 (PDK1 enzyme; Table 2) | IC50 ([1]; Table 2) | Structure (SMILES)
> 200 µM | > 200 µM | 42.8 µM |  |  |  | CCN(CC)CCNC(=O)c1ccc(Nc2cc(Cl)nc3ncnn23)cc1 [Example 39]
> 200 µM | > 200 µM | 8.29 µM |  |  |  | COc1ccc(Nc2cc(-c3cccc(Cl)c3)nc3ncnn23)cn1 [Example 40]
> 200 µM | > 200 µM | 61.4 µM |  |  |  | N#Cc1ccc(Nc2cc(Cl)nc3ncnn23)cc1 [Example 41]
> 200 µM | > 200 µM | 11.8 µM |  |  |  | COc1ccc(Nc2cc(Cl)nc3ncnn23)cn1 [Example 42]
> 200 µM | > 200 µM | > 200 µM |  |  |  | O[C@H]1CC[C@H](Nc2cc(Cl)nc3ncnn23)CC1 [Example 43]
> 200 µM | > 200 µM | 60.3 µM |  |  |  | NC(=O)c1sccc1Nc1cc(-c2ccsc2)nc2ncnn12 [Example 44]
> 200 µM | > 200 µM | 12.3 µM |  |  |  | NC(=O)c1ccc(Nc2cc(-c3cccc(F)c3)nc3ncnn23)cc1 [Example 45]
> 200 µM | > 200 µM | > 200 µM |  |  |  | NC(=O)c1sccc1Nc1cc(Cl)nc2ncnn12 [Example 47]
> 200 µM | > 200 µM | 13.5 µM |  |  |  | Clc1cc(Nc2ccc3cn[nH]c3c2)n2ncnc2n1 [Example 48]
> 200 µM | > 200 µM | 24.1 µM |  |  |  | NC(=O)c1ccc(Nc2cc(Cl)nc3ncnn23)cc1 [Example 49]
> 200 µM | > 200 µM | 31.9 µM |  |  |  | CCOC(=O)c1ccc(Nc2cc(-c3cccc(O)c3)nc3ncnn23)cc1 [Example 50]
> 200 µM | > 200 µM | 40.9 µM |  |  |  | NS(=O)(=O)c1cccc(Nc2cc(Cl)nc3ncnn23)c1 [Example 52]
> 200 µM | > 200 µM | > 200 µM |  |  |  | CCOC(=O)c1ccc(Nc2cc(Cl)nc3ncnn23)cc1 [Example 53]
> 200 µM | > 200 µM | > 200 µM |  |  |  | COc1ccc(-c2cc(Nc3cccc(Cl)c3)n3ncnc3n2)nc1 [Example 54]
> 200 µM | > 200 µM | 43.3 µM |  |  |  | Clc1cc(NCc2ccncc2)n2ncnc2n1 [Example 56]
 |  |  | > 200 µM | > 200 µM | 18.7 µM | NS(=O)(=O)c1ccc(CNc2cc(OCC3CCCCC3)nc3ncnn23)cc1 [Example 57]
 |  |  | > 200 µM | > 200 µM | 13.6 µM | NS(=O)(=O)c1ccc(Nc2cc(NCc3ccccc3)nc3ncnn23)cc1 [Example 58]
 |  |  | 117 µM | 118 µM | 3.86 µM | NS(=O)(=O)c1ccc(Nc2cc(NCC3CCCCC3)nc3ncnn23)cc1 [Example 59]
 |  |  | > 200 µM | > 200 µM | 1.91 µM | Oc1ccccc1-c1cc(Nc2ccc3cn[nH]c3c2)n2ncnc2n1 [Example 60]
 |  |  | > 200 µM | > 200 µM | > 200 µM | C[Si](C)(C)CCOCn1ncc2ccc(Nc3cc(Cl)nc4ncnn34)cc21 [Example 61]
 |  |  | > 200 µM | > 200 µM | 13 µM | CCOc1cc(Nc2ccc(S(N)(=O)=O)cc2)n2ncnc2n1 [Example 62]
 |  |  | > 200 µM | > 200 µM | 46.2 µM | CN1CCN(c2cc(Nc3ccc(S(C)(=O)=O)cc3)n3ncnc3n2)CC1 [Example 63]
